# Experimental data from patent US20140348819A1, “Methods of Treating Cancer” (Dana-Farber Cancer Institute, Inc., priority 2011, published 2014).
# Key:
# [1] = system: six V600E BRAF melanoma cell lines; test: Screening of recombinant RTK ligands for ability to confer resistance to BRAFi (PLX4720) or MEKi (PD184352) (Table 4); type: cell-based, human; design: ability of recombinant RTK ligand to confer resistance / ability of recombinant RTK ligand to confer resistance (screening value): scale not given here
# Outline: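 Six V600E BRAF melanoma lines treated with PLX4720 or PD184352 after addition of 22 recombinant RTK ligands, scored for drug resistance. Activation of selected RTKs confirmed by western blotting and high-throughput tyrosine kinase phosphorylation profiling.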
# [2] = system: pERK/pAKT; test: High-throughput western analysis of pERK/pAKT re-activation by RTK ligands under BRAFi/MEKi; type: cell-based, human; conditions: under BRAFi (PLX4720); after 1 hour of cytokine treatment; six V600E BRAF melanoma cell lines
# Protocol: FIG. 23B is a western blot showing the activation of AKT (phosphorylated AKT, S473) after 1 hour and 24 hours after treatment with HGF, IGF-1 (IGF), and Insulin (INS) in the presence of BRAFi (PLX4720, 2 μM). FIG. 23C is a western blot showing the effect of HGF (25 ng/mL) on MAPK and PI3K/AKT pathway activation (pRAF1, pMEK, pERK, pAKT and pMET) in melanoma cell lines after 24 hours of treatment with 2 μM BRAFi (PLX4720) or 2 μM MEKi (PD184352).
# To understand why, of all the RTKs tested, only HGF could induce such a unique primary resistance phenotype, a high-throughput western analysis was used to test the ability of all 22 RTK ligands to re-activate pERK/pAKT under BRAFi (PLX4720) treatment in six V600E BRAF melanoma cell lines. […] However, whereas the activation of both ERK and AKT by HGF under PLX4720 treatment was long lasting, the activation of either ERK or AKT by the above cytokines was only transient and thus could not confer resistance to the melanoma cell lines.
substance,measurement,setting,value
"insulin: RTK ligand (INSR), cytokine tested",ability of recombinant RTK ligand to confer resistance,"[1]; A2058, PD184352 - 1 uM, ligand 156.25 ng/ml",0.98
same,ability of recombinant RTK ligand to confer resistance,"[1]; A2058, PD184352 - 1 uM, ligand 625 ng/ml",0.99
same,ability of recombinant RTK ligand to confer resistance,"[1]; A2058, PD184352 - 1 uM, ligand 2500 ng/ml",1.14
same,ability of recombinant RTK ligand to confer resistance,"[1]; A2058, PD184352 - 1 uM, ligand 10000 ng/ml",1.03
same,ability of recombinant RTK ligand to confer resistance,"[1]; A2058, PD184352 - 1 uM, ligand 40000 ng/ml",1.06
same,ability of recombinant RTK ligand to confer resistance,"[1]; A2058, PLX4720 - 2 uM, ligand 156.25 ng/ml",0.98
same,ability of recombinant RTK ligand to confer resistance,"[1]; A2058, PLX4720 - 2 uM, ligand 625 ng/ml",0.96
same,ability of recombinant RTK ligand to confer resistance,"[1]; A2058, PLX4720 - 2 uM, ligand 2500 ng/ml",1.12
same,ability of recombinant RTK ligand to confer resistance,"[1]; A2058, PLX4720 - 2 uM, ligand 10000 ng/ml",1.02
same,ability of recombinant RTK ligand to confer resistance,"[1]; A2058, PLX4720 - 2 uM, ligand 40000 ng/ml",1.11
same,ability of recombinant RTK ligand to confer resistance,"[1]; C32, PD184352 - 1 uM, ligand 156.25 ng/ml",1.09
same,ability of recombinant RTK ligand to confer resistance,"[1]; C32, PD184352 - 1 uM, ligand 625 ng/ml",1.08
same,ability of recombinant RTK ligand to confer resistance,"[1]; C32, PD184352 - 1 uM, ligand 2500 ng/ml",1.20
same,ability of recombinant RTK ligand to confer resistance,"[1]; C32, PD184352 - 1 uM, ligand 10000 ng/ml",1.08
same,ability of recombinant RTK ligand to confer resistance,"[1]; C32, PD184352 - 1 uM, ligand 40000 ng/ml",1.04
same,ability of recombinant RTK ligand to confer resistance,"[1]; C32, PLX4720 - 2 uM, ligand 156.25 ng/ml",1.14
same,ability of recombinant RTK ligand to confer resistance,"[1]; C32, PLX4720 - 2 uM, ligand 625 ng/ml",1.05
same,ability of recombinant RTK ligand to confer resistance,"[1]; C32, PLX4720 - 2 uM, ligand 2500 ng/ml",1.20
same,ability of recombinant RTK ligand to confer resistance,"[1]; C32, PLX4720 - 2 uM, ligand 10000 ng/ml",1.02
same,ability of recombinant RTK ligand to confer resistance,"[1]; C32, PLX4720 - 2 uM, ligand 40000 ng/ml",1.04
same,ability of recombinant RTK ligand to confer resistance,"[1]; Colo 829, PD184352 - 1 uM, ligand 156.25 ng/ml",0.91
same,ability of recombinant RTK ligand to confer resistance,"[1]; Colo 829, PD184352 - 1 uM, ligand 625 ng/ml",0.98
same,ability of recombinant RTK ligand to confer resistance,"[1]; Colo 829, PD184352 - 1 uM, ligand 2500 ng/ml",0.98
same,ability of recombinant RTK ligand to confer resistance,"[1]; Colo 829, PD184352 - 1 uM, ligand 10000 ng/ml",1.02
same,ability of recombinant RTK ligand to confer resistance,"[1]; Colo 829, PD184352 - 1 uM, ligand 40000 ng/ml",1.02
same,ability of recombinant RTK ligand to confer resistance,"[1]; Colo 829, PLX4720 - 2 uM, ligand 156.25 ng/ml",0.91
same,ability of recombinant RTK ligand to confer resistance,"[1]; Colo 829, PLX4720 - 2 uM, ligand 625 ng/ml",0.93
same,ability of recombinant RTK ligand to confer resistance,"[1]; Colo 829, PLX4720 - 2 uM, ligand 2500 ng/ml",0.97
same,ability of recombinant RTK ligand to confer resistance,"[1]; Colo 829, PLX4720 - 2 uM, ligand 10000 ng/ml",1.01
same,ability of recombinant RTK ligand to confer resistance,"[1]; Colo 829, PLX4720 - 2 uM, ligand 40000 ng/ml",1.00
same,ability of recombinant RTK ligand to confer resistance,"[1]; G-361, PD184352 - 1 uM, ligand 156.25 ng/ml",0.98
same,ability of recombinant RTK ligand to confer resistance,"[1]; G-361, PD184352 - 1 uM, ligand 625 ng/ml",0.91
same,ability of recombinant RTK ligand to confer resistance,"[1]; G-361, PD184352 - 1 uM, ligand 2500 ng/ml",1.01
same,ability of recombinant RTK ligand to confer resistance,"[1]; G-361, PD184352 - 1 uM, ligand 10000 ng/ml",0.98
same,ability of recombinant RTK ligand to confer resistance,"[1]; G-361, PD184352 - 1 uM, ligand 40000 ng/ml",0.97
same,ability of recombinant RTK ligand to confer resistance,"[1]; G-361, PLX4720 - 2 uM, ligand 156.25 ng/ml",0.92
same,ability of recombinant RTK ligand to confer resistance,"[1]; G-361, PLX4720 - 2 uM, ligand 625 ng/ml",0.88
same,ability of recombinant RTK ligand to confer resistance,"[1]; G-361, PLX4720 - 2 uM, ligand 2500 ng/ml",0.98
same,ability of recombinant RTK ligand to confer resistance,"[1]; G-361, PLX4720 - 2 uM, ligand 10000 ng/ml",0.96
same,ability of recombinant RTK ligand to confer resistance,"[1]; G-361, PLX4720 - 2 uM, ligand 40000 ng/ml",0.99
same,ability of recombinant RTK ligand to confer resistance,"[1]; SK-MEL-5, PD184352 - 1 uM, ligand 156.25 ng/ml",1.20
same,ability of recombinant RTK ligand to confer resistance,"[1]; SK-MEL-5, PD184352 - 1 uM, ligand 625 ng/ml",1.24
same,ability of recombinant RTK ligand to confer resistance,"[1]; SK-MEL-5, PD184352 - 1 uM, ligand 2500 ng/ml",1.30
same,ability of recombinant RTK ligand to confer resistance,"[1]; SK-MEL-5, PD184352 - 1 uM, ligand 10000 ng/ml",1.28
same,ability of recombinant RTK ligand to confer resistance,"[1]; SK-MEL-5, PD184352 - 1 uM, ligand 40000 ng/ml",1.66
same,ability of recombinant RTK ligand to confer resistance,"[1]; SK-MEL-5, PLX4720 - 2 uM, ligand 156.25 ng/ml",1.10
same,ability of recombinant RTK ligand to confer resistance,"[1]; SK-MEL-5, PLX4720 - 2 uM, ligand 625 ng/ml",1.18
same,ability of recombinant RTK ligand to confer resistance,"[1]; SK-MEL-5, PLX4720 - 2 uM, ligand 2500 ng/ml",1.27
same,ability of recombinant RTK ligand to confer resistance,"[1]; SK-MEL-5, PLX4720 - 2 uM, ligand 10000 ng/ml",1.26
same,ability of recombinant RTK ligand to confer resistance,"[1]; SK-MEL-5, PLX4720 - 2 uM, ligand 40000 ng/ml",1.43
same,ability of recombinant RTK ligand to confer resistance,"[1]; SK-MEL-28, PD184352 - 1 uM, ligand 156.25 ng/ml",1.01
same,ability of recombinant RTK ligand to confer resistance,"[1]; SK-MEL-28, PD184352 - 1 uM, ligand 625 ng/ml",0.97
same,ability of recombinant RTK ligand to confer resistance,"[1]; SK-MEL-28, PD184352 - 1 uM, ligand 2500 ng/ml",1.06
same,ability of recombinant RTK ligand to confer resistance,"[1]; SK-MEL-28, PD184352 - 1 uM, ligand 10000 ng/ml",1.13
same,ability of recombinant RTK ligand to confer resistance,"[1]; SK-MEL-28, PD184352 - 1 uM, ligand 40000 ng/ml",1.11
same,ability of recombinant RTK ligand to confer resistance,"[1]; SK-MEL-28, PLX4720 - 2 uM, ligand 156.25 ng/ml",1.02
same,ability of recombinant RTK ligand to confer resistance,"[1]; SK-MEL-28, PLX4720 - 2 uM, ligand 625 ng/ml",0.95
same,ability of recombinant RTK ligand to confer resistance,"[1]; SK-MEL-28, PLX4720 - 2 uM, ligand 2500 ng/ml",0.99
same,ability of recombinant RTK ligand to confer resistance,"[1]; SK-MEL-28, PLX4720 - 2 uM, ligand 10000 ng/ml",1.05
same,ability of recombinant RTK ligand to confer resistance,"[1]; SK-MEL-28, PLX4720 - 2 uM, ligand 40000 ng/ml",1.05
same,re-activation of pERK/pAKT,[2],only reactivate AKT
